Assay results published in the NIST ThermoML archive (doi:10.1016/j.jct.2017.03.022).

Assay: xn = mol fraction of the nth substance listed
Settings: 101 kPa, Liquid; for speed of sound: Frequency=3 MHz, Single path-length method; for mass density: Vibrating tube method

O=C1CCCN1 [2-pyrrolidinone] + CC(O)CO
Settings	mass density, 303.15 K [kg/m3]	mass density, 308.15 K [kg/m3]	mass density, 313.15 K [kg/m3]	mass density, 318.15 K [kg/m3]	mass density, 323.15 K [kg/m3]	speed of sound, 303.15 K [m/s]	speed of sound, 308.15 K [m/s]	speed of sound, 313.15 K [m/s]	speed of sound, 318.15 K [m/s]	speed of sound, 323.15 K [m/s]
x1 = 0.0994	1038.42	1034.26	1030.26	1026.14	1021.99	1511.8	1497.1	1482.2	1467.6	1453
x1 = 0.1962	1047.15	1042.74	1038.53	1034.14	1029.74	1526.8	1511.5	1496.4	1481.6	1466.5
x1 = 0.3038	1056.3	1051.69	1047.29	1042.69	1038.13	1543.7	1528.1	1512.5	1497.3	1481.7
x1 = 0.4148	1065.17	1060.55	1055.91	1051.2	1046.49	1560.1	1544.3	1528.5	1513.2	1497.3
x1 = 0.5021	1071.72	1067.1	1062.38	1057.63	1052.9	1571.9	1555.9	1540	1524.6	1508.5
x1 = 0.5951	1078.36	1073.71	1069.03	1064.29	1059.57	1583.5	1567.3	1551.2	1535.7	1519.4
x1 = 0.6891	1084.67	1080.01	1075.46	1070.79	1066.14	1594.1	1577.5	1561.4	1545.9	1529.3
x1 = 0.7994	1091.64	1087.08	1082.66	1078.14	1073.64	1604.8	1588.2	1572	1556.7	1539.9
x1 = 0.8908	1097.03	1092.6	1088.37	1084.03	1079.69	1612.3	1595.6	1579.6	1563.9	1546.7
x1 = 1	1103.07	1098.99	1094.9	1090.82	1086.75	1617.7	1601.3	1585.4	1570.4	1553.5

OCCCO [propan-1,3-diol] + O=C1CCCN1
Settings	mass density, 303.15 K [kg/m3]	mass density, 308.15 K [kg/m3]	mass density, 313.15 K [kg/m3]	mass density, 318.15 K [kg/m3]	mass density, 323.15 K [kg/m3]	speed of sound, 303.15 K [m/s]	speed of sound, 308.15 K [m/s]	speed of sound, 313.15 K [m/s]	speed of sound, 318.15 K [m/s]	speed of sound, 323.15 K [m/s]
x2 = 0	1046.56	1043.43	1040.28	1037.11	1033.92	1617.6	1606.2	1594.8	1583.5	1572.1
x2 = 0.1108	1052.98	1049.7	1046.4	1043.08	1039.74	1619.8	1607.5	1595.3	1583.4	1571.2
x2 = 0.2172	1059.11	1055.69	1052.25	1048.8	1045.34	1621.2	1608.3	1595.4	1582.9	1569.9
x2 = 0.3044	1064.1	1060.58	1057.04	1053.49	1049.93	1621.9	1608.6	1595.3	1582.3	1568.7
x2 = 0.4174	1070.53	1066.89	1063.24	1059.57	1055.89	1622.4	1608.5	1594.6	1581.1	1566.8
x2 = 0.5076	1075.64	1071.91	1068.17	1064.41	1060.65	1622.4	1608	1593.7	1579.9	1565.1
x2 = 0.6177	1081.83	1078	1074.17	1070.32	1066.47	1621.9	1607	1592.3	1578.2	1562.8
x2 = 0.6909	1085.92	1082.04	1078.15	1074.25	1070.34	1621.4	1606.2	1591.2	1576.8	1561.1
x2 = 0.8139	1092.77	1088.8	1084.83	1080.85	1076.87	1620.2	1604.5	1589	1574.4	1558.2
x2 = 0.8736	1096.07	1092.07	1088.06	1084.05	1080.04	1619.5	1603.5	1587.9	1573.1	1556.8
